According to patent publication US20260200903A1, “PHARMACEUTICAL COMPOSITION FOR AMELIORATING MALIGNANT DISEASES” (KINKI UNIVERSITY, priority 2020, published 2026):

Legend:
Assay type in all cases: cell-based
[1] = target: T1, phospho-NIK (Homo sapiens, UniProt Q99558); assay: Immunoblotting of phospho-NIK in KMS-28BM cells; conditions: 72 h, vs control, 1 μM mangiferin 8a/M8, 1 μM norathyriol, 0.5 μM M7, 0.2 μM M9, 5 μM yk-7, 0.5 μM yk-8-3, 100 μM yk-8-1, 0.5 μM M19, M18, M11, 0.005 μM M16, M15, M14, 0.05 μM M12
T1 construct: Proteins were extracted from these cell suspensions with cell lysate and used as samples; endogenous in cells; host or cells: KMS-28BM (myeloma)
Description: Immunoblotting was performed on KMS-28BM cells to investigate the inhibitory effect of each compound administration on NIK inhibition and the activation of IKK, NF-κB p52, and NF-κB p65, which are downstream signals of NIK. As a result, inhibition of NIK activation, inhibition of IKK activity, and inhibition of nuclear translocation of NF-κB p52 and NF-κB p65 were observed (FIG. 15 and FIG. 16).
As a control, compounds untreated KMS-28BM cells were seeded in 150 cm^2 flasks and incubated for 72 h at 37° C. and 5% CO2. KMS-28BM cells were seeded into 150 cm^2 flasks and pre-cultured for 24 h. After incubation, KMS-28BM cells were treated with […], 1 μM norathyriol, 0.5 μM M7 (formula (4)), 1 μM M8 (mangiferin 8a: listed in duplicate), 0.2 μM M9 (formula (5)), 5 μM yk-7 (formula (1)), 0.5 μM yk-8-3 (formula (3)) and 100 μM yk-8-1 (formula (2)) at final concentrations, and incubated for 72 h at 37° C. and 5% CO2. In addition, KMS-28BM cells were also treated with 0.5 μM M19 (formula (12)), 0.5 μM M18 (formula (11)), 0.005 μM M16 (formula (10)), […] (formula (9)), 0.005 μM M14 (formula (8)), 0.05 μM M12 (formula (7)) and […] (formula (6)) at the final concentrations, and incubated for 72 h at 37° C. and 5% CO2. Proteins were extracted from these cell suspensions with cell lysate and used as samples.
The nucleus and cytoplasmic substrate were separated from the cells using the ProteoExtract (registered trademark) Subcellular Proteome Extraction Kit from Merck Ltd. to extract the cytoplasmic and nuclear fractions.
After SDS-PAGE, each sample was transferred to a PVDF membrane and examined using anti-phospho-NIK, anti-NIK, anti-phospho-IKK, anti-IKK, anti-P-actin, anti-NF-κB p52 and anti-NF-κB p65 antibody, and anti-Lamin antibody.
The antibody species is indicated in the vertical direction. Specifically, for anti-phospho-NIK antibody, “Phospho-NIK” was used, for anti-NIK antibody, “NIK” was used, for anti-phospho-IKK antibody, “Phospho-IKK” was used, for anti-IKK antibody, “IKK” was used, for anti-p-actin antibody, “p-actin” was used, for anti-NF-κB p52 antibody, “NF-κB p52 nuclear” was used, for anti-NF-κB p65 antibody, “NF-κB p65 nuclear” was used, and for anti-Lamin antibody, “Lamin” was used.

[2] = tested on: KMS-28BM cells (myeloma cell line); assay: Cell death inducing effect on KMS-28BM cells, trypan blue staining; conditions: KMS-28BM (myeloma), cell viability
Description: (§1) KMS-28BM cells (myeloma cell line) were cultured under 5% CO2 at 37° C. The culture medium used RPMI-1640 medium with 100 μg/mL penicillin, 100 U/mL streptomycin and fetal bovine serum. KMS-28BM cells were seeded into 96-well plates and incubated with each concentration of the compounds was added, and cell viability was determined by the trypan blue staining.
(§2) For controls, only 0.5% DMSO (diluted in PBS) used to dissolve the compounds was added. For each concentration, each bar line is indicated by an arrow with the sign “n, a, 1, 2, 3, 4, 5, 6, 7, 8, 9, 10, 11, 12” from left to right. The “1, 3, 5, 7, 9, 11” are omitted from the graph, but the sign “1” shall be indicated by an arrow between the signs “a” and “2”, the sign “3” between the signs “2” and “4”, and other odd numbers shall likewise be indicated by arrows between even numbers before and after.
(§3) The sign “n” is the norathyriol (formula (n)) administration group, the sign “a” is the mangiferin 8a (formula (a)) administration group, the sign “1” is the yk-7 (formula (1)) administration group, the sign “2” is the yk-8-1 (formula (2)) administration group, the sign “3” is the yk-8-3 (formula (3)) administration group, the sign “4” is the M7 (formula (4)) administration group, the sign “5” is the M9 (formula (5)) administration group, the sign “6” is the M11 (formula (6)) administration group, the sign “7” is the M12 (formula (7)) administration group, the sign “8” is the M14 (formula (8)) administration group, the sign “9” is the M15 (formula (9)) administration group, the sign “10” is the M16 (formula (10)) administration group, the sign “11” is the M18 (formula (11)) administration group, the sign “12” is the M19 (formula (12)) administration group, respectively. The IC50 values for each compound is also listed in the upper right corner of the figure.

[3] = tested on: RPMI8226 cells (myeloma cell line); assay: Cell death inducing effect on RPMI8226 cells, trypan blue staining
Description: as §1, with “RPMI8226” for “KMS-28BM”
as §2, §3

[4] = tested on: CD138; assay: CD138 expression in L363 cells, flow cytometry; conditions: 10 days, concentration lower than the IC50 (0.005-50 μM), compared to the positive control
Description: As a control, compounds untreated L363 cells were seeded in 75 cm^2 flasks and incubated for 10 days at 37° C. and 5% CO2. L363 cells were seeded into 75 cm^2 flasks and pre-cultured for 4 h. After incubation, L363 cells were treated with 0.1 μM M7, 0.05 μM M9, 0.1 μM yk-7, 0.1 μM yk-8-3, 50 μM yk-8-1, 0.1 μM M11, 0.01 μM M12, 0.005 μM M14, 0.005 μM M15, 0.005 μM M16, 1 μM M18, and 1 μM M19 at final concentrations, and incubated for 10 days at 37° C. and 5% CO2. This added amount is a concentration lower than the IC50 of the above compounds for L363 cells. After 10 days of incubation, cells were stained with anti-CD138 antibody, a marker of multiple myeloma grade, and CD138 expression was measured using BD LSRFortessa.
Results are shown in FIG. 25, FIG. 26, FIG. 27 and FIG. 28. The horizontal axis represents the expression level of CD138 and the vertical axis represents the number of cells.

[5] = Homo sapiens, RPMI-8226, cell viability

T1 sequence (Q99558 whole entry): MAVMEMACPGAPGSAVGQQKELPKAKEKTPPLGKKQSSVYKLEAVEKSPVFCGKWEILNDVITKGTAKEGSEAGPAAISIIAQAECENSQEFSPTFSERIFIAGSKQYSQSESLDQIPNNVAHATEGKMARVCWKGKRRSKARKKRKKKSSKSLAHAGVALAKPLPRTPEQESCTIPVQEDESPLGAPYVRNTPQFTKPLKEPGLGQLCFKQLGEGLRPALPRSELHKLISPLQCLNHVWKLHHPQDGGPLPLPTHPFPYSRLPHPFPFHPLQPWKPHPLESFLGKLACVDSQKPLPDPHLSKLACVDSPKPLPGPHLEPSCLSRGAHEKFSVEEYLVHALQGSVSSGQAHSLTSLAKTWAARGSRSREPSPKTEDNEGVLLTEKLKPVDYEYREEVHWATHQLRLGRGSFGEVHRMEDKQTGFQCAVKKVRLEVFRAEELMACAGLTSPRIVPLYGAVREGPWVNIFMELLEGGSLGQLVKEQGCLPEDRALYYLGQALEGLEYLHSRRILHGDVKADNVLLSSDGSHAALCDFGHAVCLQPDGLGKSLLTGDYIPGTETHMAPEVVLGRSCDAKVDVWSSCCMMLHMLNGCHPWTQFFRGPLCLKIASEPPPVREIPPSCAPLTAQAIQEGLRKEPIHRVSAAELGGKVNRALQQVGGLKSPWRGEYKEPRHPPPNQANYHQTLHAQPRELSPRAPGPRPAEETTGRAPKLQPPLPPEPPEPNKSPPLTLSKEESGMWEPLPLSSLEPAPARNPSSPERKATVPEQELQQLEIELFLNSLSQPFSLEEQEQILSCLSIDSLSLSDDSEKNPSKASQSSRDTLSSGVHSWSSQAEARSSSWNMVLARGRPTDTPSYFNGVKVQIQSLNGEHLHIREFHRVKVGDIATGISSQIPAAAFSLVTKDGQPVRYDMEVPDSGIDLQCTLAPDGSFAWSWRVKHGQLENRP

Compound	phospho-NIK band density (anti-phospho-NIK antibody) [1]	IC50 [2] [nM]	IC50 ([3]; cell viability) [nM]	CD138 expression levels [4]	IC50 [3, 5] [nM]
1,2′,3′,4′,6-penta-O-propionylmangiferin [Compound 8a, reference compound]	decrease in band density	2170	7090		
CCCCC(=O)OC[C@H]1O[C@@H](c2c(O)cc3oc4cc(O)c(O)cc4c(=O)c3c2OC(=O)CCCC)[C@H](OC(=O)CCCC)[C@@H](OC(=O)CCCC)[C@@H]1OC(=O)CCCC [yk-8-3, 1,2′,3′,4′,6-penta-O-valerylmangiferin]	decrease in band density	570		markedly reduced	2270
CCCC(=O)OC[C@H]1O[C@@H](c2c(O)cc3oc4cc(O)c(O)cc4c(=O)c3c2OC(=O)CCC)[C@H](OC(=O)CCC)[C@@H](OC(=O)CCC)[C@@H]1OC(=O)CCC [Compound M12, 1,2′,3′,4′,6-penta-O-butyrylmangiferin]	decrease in band density	210		markedly reduced	291
O=c1c2cc(O)c(O)cc2oc2cc(O)cc(OCCO)c12 [Compound M18, 3,6,7-trihydroxy-1-(2-hydroxyethoxy)-9H-xanthen-9-one]	decrease in band density	890		markedly reduced	6870
CCCCC(=O)OC[C@H]1O[C@@H](c2c(OC(=O)CCCC)cc3oc4cc(OC(=O)CCCC)c(OC(=O)CCCC)cc4c(=O)c3c2OC(=O)CCCC)[C@H](OC(=O)CCCC)[C@@H](OC(=O)CCCC)[C@@H]1OC(=O)CCCC [yk-8-1, 1,3,2′,3′,4′,6,6′,7-octa-O-valerylmangiferin]	decrease in band density	> 100000	> 100000	markedly reduced	
O=c1c2cc(O)c(O)cc2oc2cc(O)cc(O)c12 [norathyriol, reference compound]	decrease in band density	1500			8870
CCCC(=O)OC[C@H]1O[C@@H](c2c(OC(=O)CCC)cc3oc4cc(OC(=O)CCC)c(OC(=O)CCC)cc4c(=O)c3c2OC(=O)CCC)[C@H](OC(=O)CCC)[C@@H](OC(=O)CCC)[C@@H]1OC(=O)CCC [Compound M11, 1,3,2′,3′,4′,6,6′,7-octa-O-butyrylmangiferin]	decrease in band density	1910	3210	markedly reduced	
CCC(=O)OC[C@H]1O[C@@H](c2c(OC(=O)CC)cc3oc4cc(OC(=O)CC)c(OC(=O)CC)cc4c(=O)c3c2OC(=O)CC)[C@H](OC(=O)CC)[C@@H](OC(=O)CC)[C@@H]1OC(=O)CC [Compound M7, 1,3,2′,3′,4′,6,6′,7-octa-O-propionylmangiferin]	decrease in band density	770		markedly reduced	6420
CC(C)(C)C(=O)OC[C@H]1O[C@@H](c2c(O)cc3oc4cc(O)c(O)cc4c(=O)c3c2O)[C@H](OC(=O)C(C)(C)C)[C@@H](OC(=O)C(C)(C)C)[C@@H]1OC(=O)C(C)(C)C [Compound M15, 2′,3′,4′,6′-tetra-O-pivaloylmangiferin]	decrease in band density	170		markedly reduced	183
CCCCC(=O)OC[C@H]1O[C@@H](c2c(O)cc3oc4cc(O)c(O)cc4c(=O)c3c2O)[C@H](OC(=O)CCCC)[C@@H](OC(=O)CCCC)[C@@H]1OC(=O)CCCC [yk-7, 2′,3′,4′,6′-tetra-O-valerylmangiferin]	decrease in band density	5300		markedly reduced	2460

Second part, led by results:

phospho-NIK band density (anti-phospho-NIK antibody) [1]	Compound	IC50 [2] [nM]	IC50 ([3]; cell viability) [nM]	CD138 expression levels [4]	IC50 [3, 5] [nM]
decrease in band density	CCC(=O)OC[C@H]1O[C@@H](c2c(O)cc3oc4cc(O)c(O)cc4c(=O)c3c2O)[C@H](OC(=O)CC)[C@@H](OC(=O)CC)[C@@H]1OC(=O)CC [Compound M9, 2′,3′,4′,6′-tetra-O-propionylmangiferin]	210		markedly reduced	696
decrease in band density	C=CCOc1cc(O)cc2oc3cc(O)c(O)cc3c(=O)c12 [Compound M19, 1-allyloxy-3,6,7-trihydroxy-9H-xanthen-9-one]	2100		markedly reduced	9540
decrease in band density	CCCC(=O)OC[C@H]1O[C@@H](c2c(O)cc3oc4cc(O)c(O)cc4c(=O)c3c2O)[C@H](OC(=O)CCC)[C@@H](OC(=O)CCC)[C@@H]1OC(=O)CCC [Compound M14, 2′,3′,4′,6′-tetra-O-butyrylmangiferin]	80		markedly reduced	121
decrease in band density	CCCCO[C@@H]1[C@@H](OCCCC)[C@H](c2c(O)cc3oc4cc(O)c(O)cc4c(=O)c3c2O)O[C@H](COC(=O)CCC)[C@H]1OC(=O)CCC [Compound M16, 2′,3′-di-O-butyl-4′,6′-di-O-butyrylmangiferin]	70		markedly reduced	91
